Laboratory results taken from US12590062B2, “PD-1/PD-L1 inhibitors” (Gilead Sciences, Inc., priority 2017, dated 2026).

Tests used:
PD-L1 = target: T1, PD-L1 (Homo sapiens, UniProt Q9NZQ7); experiment: PD-L1/PD-L1 dimerization biochemical protein-protein interaction assay (ALPHA); format: binding; conditions: compound-induced PD-L1 dimerization, head prints '1 nM' (0.5 nM His-tagged PD-L1 and 0.5 nM FLAG-tagged PD-L1), read-out: AC50 PDL1 Dimer Alpha 1 nM
T1 construct: determine if they can specifically dimerize the extracellular domains of PD-L1
Procedure: PD-L1/PD-L1 Dimerization Biochemical Protein-Protein Interaction Assay:
Compounds were tested in biochemical protein-protein interaction assays to determine if they can specifically dimerize the extracellular domains of PD-L1. Dimerization of the proteins (His-tagged PD-L1 and FLAG-tagged PD-L1) is measured using a bead based Amplified Luminescent Proximity Homogeneous Assay (ALPHA) platform. […] Assays are performed in 25 mM Hepes (pH 7.4), 150 mM NaCl, 3.4 mM EDTA, 0.005% Tween 20, and 0.01% BSA. Final protein concentration in the assays were 0.5 nM (His tagged PD-L) and 0.5 nM (FLAG tagged PD-L1). After an assay reaction time of 2 hours at 25° C., 20 μg/mL (final assay concentration) ALPHA assay acceptor beads (anti-His coated) were added and incubated for 60 minutes at 25° C. Binding was measured following a final 60 minute incubation with 40 μg/mL (final assay concentration) ALPHA assay donor beads (anti-FLAG coated). AC50 values were calculated from the fit of the dose-response curves to a four-parameter equation (Table 3).

PD-1/PD-L1 interaction = target: T2, PD-1/PD-L1 interaction (Homo sapiens, UniProt Q9NZQ7); experiment: PD-1/PD-L1 NFAT reporter co-culture assay; format: cell-based; conditions: Jurkat PD-1 NFAT-luciferase cells co-cultured with aAPC-PD-L1 CHO cells, 6 hrs at 37° C.; read-out: EC50 NFAT Luciferase
T2 construct: expressed in transfected cells; host or cells: CHO cells (aAPC-PD-L1) co-cultured with Jurkat cells overexpressing PD-1 and an NFAT-luciferase reporter
How it was run: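 CHO aAPC-PD-L1 seeded overnight; PD-1/NFAT-luc Jurkat + cpd in RPMI 1640, 2% FBS added at once; 6 h, 37 °C; ONE-Glo luminescence; EC50, 4-parameter fit.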

PD-1/PD-L1 = PD-1/PD-L1 (Homo sapiens, UniProt Q9NZQ7); experiment: PD-1/PD-L1 biochemical protein-protein interaction assay (ALPHA); format: binding; conditions: 0.3 nM His tagged PD-L1, 2.5 nM biotinylated Fc-PD-1, 60 minutes at 25° C., read-out: IC50 PD-L1-PD-1 Alpha IC50-mono PD-L1-fcP-D1
How it was run: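 Bead proximity read-out: compound-driven loss of ALPHA signal between anti-His acceptor and streptavidin donor beads (20 μg/mL acceptor). Proteins: 0.3 nM His-PD-L1, 2.5 nM biotin-Fc-PD-1, final. 60 min, 25° C, Hepes pH 7.4 buffer. IC50 via four-parameter dose-response fit.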

T1 sequence (Q9NZQ7 19-238 limits assumed): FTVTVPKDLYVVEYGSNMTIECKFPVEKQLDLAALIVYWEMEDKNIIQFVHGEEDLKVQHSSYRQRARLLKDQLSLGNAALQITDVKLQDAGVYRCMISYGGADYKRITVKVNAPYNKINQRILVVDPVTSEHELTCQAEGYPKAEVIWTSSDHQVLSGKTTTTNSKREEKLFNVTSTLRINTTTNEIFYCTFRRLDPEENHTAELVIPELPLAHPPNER
T1 sequence (Q9NZQ7 19-238 limits assumed): as above
Sequence of PD-1/PD-L1 (Q9NZQ7 19-238 limits assumed): as above
T2 sequence (Q9NZQ7 19-290): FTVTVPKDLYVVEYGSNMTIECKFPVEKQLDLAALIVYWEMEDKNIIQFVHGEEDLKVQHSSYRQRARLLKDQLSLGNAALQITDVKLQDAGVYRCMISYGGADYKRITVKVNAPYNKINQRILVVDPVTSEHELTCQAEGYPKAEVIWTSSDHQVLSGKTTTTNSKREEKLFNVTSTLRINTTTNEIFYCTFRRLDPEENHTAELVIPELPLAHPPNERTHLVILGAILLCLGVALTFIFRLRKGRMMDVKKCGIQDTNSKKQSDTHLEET

SMILES	AC50 (PD-L1)	EC50 (PD-1/PD-L1 interaction)	IC50 (PD-1/PD-L1)
Cc1c(COc2nc(OCc3cncc(C#N)c3)c(CN[C@@](C)(CO)C(=O)O)cc2Cl)cccc1-c1cccc(-c2ccc3c(c2)CC[C@@]3(CO)N(C)C)c1C [Example 305, (S)-2-(((5-chloro-2-((5-cyanopyridin-3-yl)methoxy)-6-((3′-((R)-1-(dimethylamino)-1-(hydroxymethyl)-2,3-dihydro-1H-inden-5-yl)-2,2′-dimethyl-[1,1′-biphenyl]-3-yl)methoxy)pyridin-3-yl)methyl)amino)-3-hydroxy-2-methylpropanoic acid]	150 nM	1770 nM	0.158 nM
Cc1c(COc2nc(OCc3cncc(C#N)c3)c(CNCCO)cc2Cl)cccc1-c1cccc(-c2ccc(C(O)CN(C)C)cc2)c1C (stereo not drawn) [Example 306, 5-(((5-chloro-6-((4″-(2-(dimethylamino)-1-hydroxyethyl)-2,2′-dimethyl-[1,1′:3′,1″-terphenyl]-3-yl)methoxy)-3-(((2-hydroxyethyl)amino)methyl)pyridin-2-yl)oxy)methyl)nicotinonitrile]	292 nM	547 nM	1.97 nM
COc1nc(-c2cccc(-c3cccc(COc4cc(OCc5cncc(C#N)c5)c(CN5CC[C@@H](O)C5)cc4Cl)c3C)c2C)ccc1CNC[C@@H](O)CC(=O)O [Example 307, (S)-4-(((6-(3′-((2-chloro-5-((5-cyanopyridin-3-yl)methoxy)-4-(((R)-3-hydroxypyrrolidin-1-yl)methyl)phenoxy)methyl)-2,2′-dimethyl-[1,1′-biphenyl]-3-yl)-2-methoxypyridin-3-yl)methyl)amino)-3-hydroxybutanoic acid]	599 nM	702 nM	0.536 nM
Cc1c(COc2cc(OCc3cncc(C#N)c3)c(CN3CC[C@@H](O)C3)cc2Cl)cccc1-c1cccc(-c2ccc(CNC[C@@H](O)CC(=O)O)cc2)c1C [Example 308, (S)-4-(((3″-((2-chloro-5-((5-cyanopyridin-3-yl)methoxy)-4-(((R)-3-hydroxypyrrolidin-1-yl)methyl)phenoxy)methyl)-2′,2″-dimethyl-[1,1′:3′,1″-terphenyl]-4-yl)methyl)amino)-3-hydroxybutanoic acid]	203 nM	373 nM	0.346 nM
Cc1c(COc2cc(OCc3cncc(C#N)c3)c(CN3CC[C@@H](O)C3)cc2Cl)cccc1-c1cccc(-c2ccc(OCCNC[C@@H](O)CC(=O)O)cc2)c1C [Example 309, (S)-4-((2-((3″-((2-chloro-5-((5-cyanopyridin-3-yl)methoxy)-4-(((R)-3-hydroxypyrrolidin-1-yl)methyl)phenoxy)methyl)-2′,2″-dimethyl-[1,1′:3′,1″-terphenyl]-4-yl)oxy)ethyl)amino)-3-hydroxybutanoic acid]	103 nM	240 nM	0.168 nM
Cc1c(COc2cc(OCc3cncc(C#N)c3)c(CN[C@](C)(CO)C(=O)O)cc2Cl)cccc1-c1cccc(-c2ccc(OCCNCCO)c(S(C)(=O)=O)c2)c1C [Example 310, (R)-2-((5-chloro-2-((5-cyanopyridin-3-yl)methoxy)-4-((4″-(2-((2-hydroxyethyl)amino)ethoxy)-2,2′-dimethyl-3″-(methylsulfonyl)-[1,1′:3′,1″-terphenyl]-3-yl)methoxy)benzyl)amino)-3-hydroxy-2-methylpropanoic acid]	121 nM	215 nM	0.069 nM

Results, then the molecule that gave them:

AC50 (PD-L1)	EC50 (PD-1/PD-L1 interaction)	IC50 (PD-1/PD-L1)	SMILES
75.5 nM	104 nM	0.064 nM	Cc1c(COc2cc(OCc3cncc(C#N)c3)c(CN[C@@](C)(CO)C(=O)O)cc2Cl)cccc1-c1cccc(-c2ccc(OCCNCCO)cc2)c1C [Example 311, (S)-2-((5-chloro-2-((5-cyanopyridin-3-yl)methoxy)-4-((4″-(2-((2-hydroxyethyl)amino)ethoxy)-2, 2′-dimethyl-[1, 1′:3′,1″-terphenyl]-3-yl)methoxy)benzyl)amino)-3-hydroxy-2-methylpropanoic acid]
144 nM	97 nM	0.051 nM	Cc1c(COc2cc(OCc3cncc(C#N)c3)c(CNC[C@@H](O)CC(=O)O)cc2Cl)cccc1-c1cccc(-c2ccc(OCCNC[C@@H](O)CC(=O)O)c(C(N)=O)c2)c1C [Example 312, (S)-4-((2-((3-carbamoyl-3″-((4-((((S)-3-carboxy-2-hydroxypropyl)amino)methyl)-2-chloro-5-((5-cyanopyridin-3-yl)methoxy)phenoxy)methyl)-2′,2″-dimethyl-[1,1′:3′,1″-terphenyl]-4-yl)oxy)ethyl)amino)-3-hydroxybutanoic acid]
91.3 nM	152 nM	0.051 nM	Cc1c(COc2cc(OCc3cncc(C#N)c3)c(CN[C@@](C)(CO)C(=O)O)cc2Cl)cccc1-c1cccc(-c2ccc(OCCN[C@@](C)(CO)C(=O)O)cc2)c1C [Example 313, (S)-2-((4-((4″-(2-(((S)-2-carboxy-1-hydroxypropan-2-yl)amino)ethoxy)-2,2′-dimethyl-[1,1′:3′,1″-terphenyl]-3-yl)methoxy)-5-chloro-2-((5-cyanopyridin-3-yl)methoxy)benzyl)amino)-3-hydroxy-2-methylpropanoic acid]
1180 nM	1100 nM	0.577 nM	COc1cc(-c2cccc(-c3cccc(-c4ccc(CNC[C@@H](O)CC(=O)O)c(OC)c4)c3C)c2C)ccc1CNC[C@@H](O)CC(=O)O [Example 317, (3S,3′S)-4,4′-(((3,3′″-dimethoxy-2′,2″-dimethyl-[1,1′:3′,1″:3″,1′″-quaterphenyl]-4,4′″-diyl)bis(methylene))bis(azanediyl))bis(3-hydroxybutanoic acid)]
67.1 nM	168 nM	0.074 nM	Cc1c(COc2cc(OCc3cncc(C#N)c3)c(CN[C@@](C)(CO)C(=O)O)cc2Cl)cccc1-c1cccc(-c2ccc(CNCC3CCC(=O)N3)cc2)c1C (stereo partly drawn) [Example 323, (2S)-2-((5-chloro-2-((5-cyanopyridin-3-yl)methoxy)-4-((2,2′-dimethyl-4″-((((5-oxopyrrolidin-2-yl)methyl)amino)methyl)-[1,1′:3′,1″-terphenyl]-3-yl)methoxy)benzyl)amino)-3-hydroxy-2-methylpropanoic acid]
1020 nM	894 nM	0.505 nM	Cc1c(-c2ccc(CN3CC[C@@H](O)C3)cc2)cccc1-c1cccc(-c2ccc(CNC[C@@H](O)CC(=O)O)c(OCCCC#N)c2)c1C [Example 324, (S)-4-(((3-(3-cyanopropoxy)-4′″-(((R)-3-hydroxypyrrolidin-1-yl)methyl)-2′,2″-dimethyl-[1,1′:3′,1″:3″,1′″-quaterphenyl]-4-yl)methyl)amino)-3-hydroxybutanoic acid]
633 nM	2580 nM	1.38 nM	Cc1c(-c2ccc(CN3CC[C@@H](O)C3)cc2)cccc1-c1cccc(-c2ccc(CNC[C@@H](O)CC(=O)O)c(OC(F)(F)F)c2)c1C [Example 325, (S)-3-hydroxy-4-(((4′″-(((R)-3-hydroxypyrrolidin-1-yl)methyl)-2′,2″-dimethyl-3-(trifluoromethoxy)-[1,1′:3′,1″:3″,1′″-quaterphenyl]-4-yl)methyl)amino)butanoic acid]
